{
  "source": "patent US6894073B2",
  "about": "“Use of diterpene compound as a therapeutic agent of inflammation, immune disease or cancer” (Korea Research Institute of Bioscience and Biotechnology, priority 2000, dated 2005)",
  "key": {"COX-2 protein": {"tested_on": "COX-2 protein", "test": "COX-2 protein expression, Western blot, LPS-stimulated Raw 264.7 cells", "type": "cell-based, murine", "conditions": "0.1-3 μg/ml, LPS 1 μg/ml, 18 hours", "method": "(§1) Raw 264.7 murine macrophage cells were treated simultaneously with 1 μg/ml concentrations of LPS and 0.1 μg/ml, 0.3 μg/ml, 1 μg/ml, and 3 μg/ml concentrations of kamebakaurin and were incubated for 18 hours at 37° C. in a 5% CO2 incubator. After preparing total cell lysates from cultured cells using buffer solution for protein extraction of the Example <7-2>, the expression pattern of proteins was assessed by Western blot analysis."}, "TNF-α": {"tested_on": "TNF-α", "test": "Inhibition of TNF-α production in LPS-stimulated Raw 264.7 cells (enzyme immunometric assay)", "type": "cell-based, murine", "conditions": "for TNF-α: 1 μg/ml LPS, 16 hours", "method": "To investigate whether kaurane diterpene compounds obtained in Example 1 can inhibit effectively the production of tumor necrosis factor-α (TNF-α), one of the inflammatory mediator, which confers cytotoxic effect and induces the production of prostaglandin and cytokines, the present inventors measured the amount of TNF-α accumulated in the culture medium of LPS-stimulated murine macrophage cells, which were treated with four kaurane diterpene compounds, kamebanin, kamebacetal A, kamebakaurin, or exisanin A.\nIn detail, Raw 264.7 cells in DMEM medium were seeded to a 96-well plate at a cell density of 1×10^5 cells/well and were incubated for 3 hours at 37° C. in a 5% CO2 incubator. To each well were added 1 μg/ml of LPS and 3 μg/ml, 0.3 μg/ml, and 0.03 μg/ml concentrations of kaurane diterpene compounds of the present invention and was incubated for 16 hours. After collecting supernatant by centrifugation, the amount of TNF-α in the culture medium was quantified by enzyme immunometric assay."}, "COX-2 mRNA": {"tested_on": "COX-2 mRNA", "test": "COX-2 mRNA expression, RT-PCR, LPS-stimulated Raw 264.7 cells", "type": "cell-based, murine", "method": "(§2) Raw 264.7 murine macrophage cells were treated simultaneously with 1 μg/ml concentrations of LPS and 0.1 μg/ml, 0.3 μg/ml, 1 μg/ml, and 3 μg/ml concentrations of kamebakaurin and were incubated for 6 hours at 37° C. in a 5% CO2 incubator. After isolation of total RNA, reverse transcriptase-polymerase chain reaction (RT-PCR) was performed using said RNA as a template and primer pairs represented by SEQ. ID NO. 3 and 4 for iNOS gene and primer pairs represented by SEQ. ID NO. 5 and 6 for COX-2."}, "iNOS mRNA": {"tested_on": "iNOS mRNA", "test": "iNOS mRNA expression, RT-PCR, LPS-stimulated Raw 264.7 cells", "type": "cell-based, murine", "conditions": "1 μg/ml, LPS 1 μg/ml, 6 hours", "method": "as §2"}, "adjuvant arthritis model": {"tested_on": "adjuvant arthritis model", "test": "Adjuvant arthritis model, paw volume", "type": "in vivo, Sprague-Dawley rat", "conditions": "for Inhibition rate (%) of arthritis: day 16-22, paw volume on 23rd day", "method": "Finding the inhibitory effect of kaurane diterpene compounds on the production of NO, prostaglandin, and TNF, and on the activation of NF-κB in the murine macrophage cells stimulated by LPS, the present inventors investigated the pharmacological efficacy of kaurane diterpene compounds with a adjuvant arthritis model according to the method of Futaki et al. (General Pharmacology, 1993, 24, 105-110). To prepare animal model of the arthritis, 0.05 ml of 0.1% Mycobacterium butyricum suspended in Freud adjuvant (Sigma, USA) was injected intradermally to the left hind paw of the male Sprague-Dawley rat of 180 g weight. On the fifteenth day after injection, the volume of the right paw of the rats was measured using plethysmometer (Ugo-Basile, Italy), and only the rats having arthritis on the right leg were selected. Thereafter, the selected rats were divided into four groups, six rats per each group. Four kinds of kaurane diterpene compounds of the present invention were administered orally to each groups everyday from the sixteenth day to twenty-second day with doses of 3 mg/kg/day, 10 mg/kg/day, and 20 mg/kg/day in the form of the suspended solution with 0.1% methylcellulose. The inhibition rate of arthritis was calculated by comparing the volume of the paw with that of the control on the 23rd day."}, "cIAP-1": {"tested_on": "cIAP-1", "test": "TNF-α-induced cIAP-1 protein expression, Western blot, MCF-7 and HT-1080 cells", "type": "cell-based", "conditions": "1, 5, 10 μg/ml, 20 ng/ml TNF-α 3 hours", "method": "MCF-7 cells and HT-1080 cells were pretreated for 30 minutes with 1 μg/ml, 5 μg/ml, and 10 μg/ml concentrations of four kinds of kaurane diterpene compounds, respectively. After that, 20 ng/ml concentrations of TNF-α were treated for three hours to induce the expression of cIAP-1 and cIAP-2 proteins. Protein extract was prepared from cultured cells using buffer solution for protein extraction consisting of 50 mM Tris-HCL (pH 7.5), 1% Nonidet P40, 150 mM NaCl, 1 mM EDTA, 1 mM phenylmethyl sulfonyl fluoride, […]. 50 μg of protein extract of the control and compound-treated groups was applied to the SDS-polyacrylamide gel electrophoresis. After transferring the proteins into the polyvinylidene difluoride membrane, the membrane was blocked with 5% skim milk for three hours, and were reacted with antibodies against cIAP-1, cIAP-2, Bcl-2, and Bax proteins (Santa Cruz Biochemicals). The membrane was washed with PBS and was reacted with secondary antibody conjugated with horseradish peroxidase. After washing again with PBS, the protein was detected by ECL system (Amersham Pharmacia Biotec)."}, "iNOS protein": {"tested_on": "iNOS protein", "test": "iNOS protein expression, Western blot, LPS-stimulated Raw 264.7 cells", "type": "cell-based, murine", "conditions": "LPS 1 μg/ml, 18 hours", "method": "as §1"}},
  "data": [
    {"smiles": "C=C1C(=O)[C@@]23[C@H](O)C[C@@H]4C(C)(C)CC[C@H](O)[C@@]4(CO)[C@@H]2CC[C@@H]1[C@H]3O", "note": "[Kamebakaurin, kamebakaurin]", "values": [
      {"measurement": "Expression of COX-2 protein", "setting": "COX-2 protein", "value": "suppressed dose-dependently"},
      {"measurement": "TNF-α", "setting": "TNF-α; 0.03 μg/ml compound", "value": "1407.0 ± 255.6", "unit": "pg/mL"},
      {"measurement": "TNF-α", "setting": "TNF-α; 0.3 μg/ml compound", "value": "654.4 ± 29.4", "unit": "pg/mL"},
      {"measurement": "TNF-α", "setting": "TNF-α; 3 μg/ml compound", "value": "29.6 ± 5.3", "unit": "pg/mL"},
      {"measurement": "inhibition at 0.03 µg/mL", "setting": "TNF-α; Mus musculus, RAW264.7, 0.03 μg/ml compound, read-out: Inhibition rate (%) of TNF-α production", "value": 15.9, "unit": "%"},
      {"measurement": "inhibition at 0.3 µg/mL", "setting": "TNF-α; Mus musculus, RAW264.7, 0.3 μg/ml compound, read-out: Inhibition rate (%) of TNF-α production", "value": 61.3, "unit": "%"},
      {"measurement": "inhibition at 3 µg/mL", "setting": "TNF-α; Mus musculus, RAW264.7, 3 μg/ml compound, read-out: Inhibition rate (%) of TNF-α production", "value": 99.2, "unit": "%"},
      {"measurement": "IC50", "setting": "TNF-α; Mus musculus, RAW264.7, LPS-stimulated Raw 264.7 cells", "value": 0.53, "unit": "µM"},
      {"measurement": "Expression of COX mRNA", "setting": "COX-2 mRNA; 1 μg/ml", "value": "inhibited"},
      {"measurement": "Expression of COX-2 mRNA", "setting": "COX-2 mRNA; 3 μg/ml, LPS 1 μg/ml, 6 hours", "value": "completely suppressed"},
      {"measurement": "Expression of iNOS mRNA", "setting": "iNOS mRNA", "value": "completely suppressed"},
      {"measurement": "Inhibition rate (%) of arthritis", "setting": "adjuvant arthritis model; 3 mg/kg/day oral", "value": "35 ± 19", "unit": "%"},
      {"measurement": "Inhibition rate (%) of arthritis", "setting": "adjuvant arthritis model; 10 mg/kg/day oral", "value": "59 ± 11", "unit": "%"},
      {"measurement": "Inhibition rate (%) of arthritis", "setting": "adjuvant arthritis model; 20 mg/kg/day oral", "value": "71 ± 17", "unit": "%"},
      {"measurement": "Suppression of arthritis (in words)", "setting": "adjuvant arthritis model; 3, 10, 20 mg/kg/day oral", "value": "suppressed dose-dependently"},
      {"measurement": "Expression of cIAP-1 protein induced by TNF-α", "setting": "cIAP-1", "value": "inhibited"},
      {"measurement": "Expression of iNOS protein", "setting": "iNOS protein; 3 μg/ml", "value": "completely suppressed"},
      {"measurement": "Expression of iNOS protein", "setting": "iNOS protein; 0.1-3 μg/ml", "value": "suppressed dose-dependently"}
    ]}
  ]
}
